Test results as given in paper PMC8359942, “Native Mass Spectrometry for the Study of PROTAC GNE‐987‐Containing Ternary Complexes” (Chemmedchem, 2021).

What was measured:
[1] = molecular target: T1, Brd4 bromodomain 2 (Brd4^B2) (Homo sapiens, UniProt O60885); test: native nESI-FT-ICR mass spectrometry, binary binding; also […] ternary complex with VCB (maximum ratio […])
T1 construct: bromodomain 2

[2] = molecular target: T2, Von Hippel‐Lindau (VHL) E3‐Ubiquitin Ligase, as VCB complex (Homo sapiens, UniProt P40337); test: native nESI-FT-ICR mass spectrometry, binary binding; also ternary complex with Brd4 B1 or B2
T2 construct: VHL complexed with Elongins B and C (VCB); with Elongin B and Elongin C
T2 sequence (P40337 whole entry): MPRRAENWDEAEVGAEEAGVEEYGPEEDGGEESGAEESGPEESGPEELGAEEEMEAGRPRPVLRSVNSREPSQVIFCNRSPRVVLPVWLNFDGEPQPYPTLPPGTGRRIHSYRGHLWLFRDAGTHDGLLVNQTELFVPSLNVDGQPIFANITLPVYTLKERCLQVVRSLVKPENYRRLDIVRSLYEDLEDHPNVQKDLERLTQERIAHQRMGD
T2 sequence (Q15370 whole entry partner): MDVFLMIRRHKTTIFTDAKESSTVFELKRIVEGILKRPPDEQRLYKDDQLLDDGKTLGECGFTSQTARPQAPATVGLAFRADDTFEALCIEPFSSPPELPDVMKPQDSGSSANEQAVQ
T2 sequence (Q15369 whole entry partner): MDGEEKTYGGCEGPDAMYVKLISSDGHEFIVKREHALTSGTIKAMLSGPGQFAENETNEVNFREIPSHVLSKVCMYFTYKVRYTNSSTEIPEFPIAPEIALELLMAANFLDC

[3] = molecular target: T3, Brd4 bromodomain 1 (Brd4^B1) (Homo sapiens, UniProt O60885); test: native nESI-FT-ICR mass spectrometry, binary binding; also […] ternary complex with VCB (maximum ratio […] at […])
T3 construct: bromodomain 1 (avi-tagged, partly biotinylated)

Substance: GNE-987
- % bound at 5 μM [1]: 45 % bound at 5 μM
- % bound at 5 μM [2]: 57 % bound at 5 μM
- % bound at 5 μM [3]: 40 % bound at 5 μM
